The test addresses T1, rat brain farnesyl protein transferase (PFT) (Rattus norvegicus, UniProt Q02293+Q04631).
T1 construct: 40-fold purified rat brain farnesyl protein transferase; from tissue; host or cells: rat brain
The test can be described thus: PFT inhibitory activity assay (radiolabeled farnesyl pyrophosphate, biotinyl peptide, streptavidin beads). Type of test: biochemical. The settings on record: 40-fold purified rat brain enzyme; 0.12 μM [3H]FPP, 0.1 μM biotinyl-Ahe-Tyr-Lys-Cys-Val-Ile-Met; 37° C., 30 minutes; read-out: IC50 (μM) against PFT. The protocol: The PFT inhibitory activity of compounds of Formula I was assayed in 30 mM potassium phosphate buffer, pH 7.4, containing 7 mM DTT, 1.2 mM MgCl2, 0.1 mM leupeptin, 0.1 mM pepstatin and 0.2 mM phenylmethylsulfonyl fluoride. Assays were performed in 96 well plates (Wallec) and employed solutions composed of varying concentrations of a compound of Formula I in 100% DMSO. Upon addition of both substrates, radiolabeled farnesyl pyrophosphate ([1-^3 H], specific activity 15--30 Ci/mmol, final concentration 0.12 μM) and (biotinyl)-Ahe-Tyr-Lys-Cys-Val-Ile-Met peptide (final concentration 0.1 μM), the enzyme reaction was started by addition of 40-fold purified rat brain farnesyl protein transferase. After incubation at 37° C. for 30 minutes, the reaction was terminated by diluting the reaction 2.5-fold with a stop buffer containing 1.5M magnesium acetate, 0.2M H3 PO4, 0.5% BSA, and strepavidin beads (Amersham) at a concentration of 1.3 mg/mL. After allowing the plate to settle for 30 minutes at room temperature, radioactivity was quantitated on a microBeta counter (model 1450, Wallec). Compounds of Formula I show IC50 values of 0.5 nM to 80 μM (see data table) in this assay and are thus valuable inhibitors of protein: farnesyl transferase enzyme which may be used in the medical treatment of tissue proliferative diseases, including cancer and restenosis.

This is an account of results in patent US5830868A, “Substituted DI- and tripeptide inhibitors of protein: farnesyl transferase” (Warner-Lambert Company, priority 1996, dated 1998).

Square brackets hold non-standard residues; d marks the D form. Peptide text beside a SMILES is read from it. * marks the point of attachment. Hydrocinnamoyl = O=C(CCc1ccccc1)*; Cbz = O=C(OCc1ccccc1)*; Bn = c1ccc(C*)cc1

T1 sequence (Q02293 whole entry, one chain of several): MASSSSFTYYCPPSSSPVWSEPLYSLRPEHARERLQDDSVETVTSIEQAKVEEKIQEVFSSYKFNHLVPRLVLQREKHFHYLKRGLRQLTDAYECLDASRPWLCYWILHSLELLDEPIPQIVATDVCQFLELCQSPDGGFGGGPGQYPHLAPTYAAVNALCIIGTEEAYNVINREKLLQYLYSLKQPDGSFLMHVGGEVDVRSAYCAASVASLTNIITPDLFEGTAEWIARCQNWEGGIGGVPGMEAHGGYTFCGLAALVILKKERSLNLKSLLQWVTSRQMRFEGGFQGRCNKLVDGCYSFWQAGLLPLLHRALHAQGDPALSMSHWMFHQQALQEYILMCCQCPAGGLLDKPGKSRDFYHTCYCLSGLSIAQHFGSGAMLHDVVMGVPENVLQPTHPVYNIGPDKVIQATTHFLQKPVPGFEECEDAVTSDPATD

`O=C(Nc1cccc2ccccc12)N[C@H](Cc1c[nH]cn1)C(=O)N[C@@H](Cc1ccc(OCc2ccccc2)cc1)C(=O)NCCOCc1ccccc1` [5 (56), 1-napthyl-NHCO--D--His--Tyr(OBn)CONHCH2 CH2 OBn]: the IC50 was 1.1 µM.
In the case of `O=C(NCc1ccccc1)N[C@H](Cc1c[nH]cn1)C(=O)N[C@@H](Cc1ccc(OCc2ccccc2)cc1)C(=O)NOCc1ccccc1` [5 (52), BnNHCO--D--His--Tyr(OBn)CONHOBn], the IC50 was found to be 1.6 µM.
Consider `NC(=O)[C@H](COCc1ccccc1)NC(=O)[C@H](Cc1ccc(OCc2ccccc2)cc1)NC(=O)[C@H](Cc1c[nH]cn1)NC(=O)OCc1ccccc1` [Example 1, Nα -[N-[N-[(Phenylmethoxy)carbonyl]-L-histidyl]-O-(phenylmethyl)-L-tyrosyl]-O-(phenylmethyl)-L-serinamide] (Cbz-His-Tyr(Bn)-Ser(Bn)-NH2), for which the IC50 was 4.4 µM.
Consider `COC(=O)[C@H](COCc1ccccc1)NC(=O)[C@H](Cc1ccc(OCc2ccccc2)cc1)NC(=O)[C@H](Cc1c[nH]cn1)NC(=O)CCc1ccccc1` [Example 18, N-[N-[N-(1-Oxo-3-phenylpropyl)-L-histidyl]-O-(phenylmethyl)-L-tyrosyl]-O-(phenylmethyl)-L-serine. methyl ester] (Hydrocinnamoyl-His-Tyr(Bn)-Ser(Bn)-OMe), for which the IC50 amounted to 0.82 µM.
For `COC(=O)[C@H](COCc1ccccc1)NC(=O)[C@H](CCc1ccc(OCc2ccccc2)cc1)NC(=O)[C@@H](Cc1c[nH]cn1)NC(=O)OCc1ccccc1` [Example 15], the half-inhibitory concentration (IC50) was determined as 30 µM.
For the molecule `O=C(Cc1ccccc1)N[C@H](Cc1c[nH]cn1)C(=O)N[C@@H](Cc1ccc(OCc2ccccc2)cc1)C(=O)N1CCN(Cc2ccccc2)CC1` [5 (30), PhCH2 CO--D--His--Tyr(OBn)CO(4-Bn-piperazin-1-yl)], the IC50 came to 73 µM.
Consider `COC(=O)C(CCSC)NC(=O)C(Cc1ccc(OCc2ccccc2)cc1)NC(=O)C(Cc1cnc[nH]1)NC(=O)NCCc1ccccc1` [5 (28), PhCH2 CH2 NHCO--D--His--Tyr(OBn)CONH--Met--CO2 Me], for which the IC50 was 0.73 µM.
As for `O=C(NC1CCCCC1)N[C@H](Cc1c[nH]cn1)C(=O)N[C@@H](Cc1ccc(OCc2ccccc2)cc1)C(=O)NCc1ccccc1` [5 (35), c-hexyl-NHCO--D--His--Tyr(OBn)CONHCH2 Ph], the IC50 came to 66 µM.
`CCNC(=O)[C@H](COCc1ccccc1)NC(=O)[C@H](Cc1ccc(OCc2ccccc2)cc1)NC(=O)[C@@H](Cc1c[nH]cn1)NC(=O)OCc1ccccc1` [Example 12, N-Ethyl-Nα -[N-[N-[(Phenylmethoxy)carbonyl]-D-histidyl]-O-(phenylmethyl)-L-tyrosyl]-O-(phenylmethyl)-L-serinamide] (Cbz-[dH]-Tyr(Bn)-Ser(Bn)-NHEt): the IC50 is 0.028 µM.
`O=C(NC(Cc1c[nH]cn1)C(=O)NC(Cc1ccc(OCc2ccccc2)cc1)C(=O)NCCCCc1ccccc1)OCc1ccccc1` [5 (64), BnOCO--D--His--Tyr(OBn)CONHCH2 CH2 CH2 CH2 Ph]: the IC50 stood at 1.7 µM.
As for `CC(C)NC(=O)N[C@H](Cc1c[nH]cn1)C(=O)N[C@@H](Cc1ccc(OCc2ccccc2)cc1)C(=O)NCCCCc1ccccc1` [5 (79), (CH3)2 CHNHCO--D--His--Tyr(OBn)CONHCH2 CH2 CH2 CH2 Ph], the IC50 came out at 3 µM.
On to `COC(=O)[C@@H](COCc1ccccc1)NC(=O)[C@H](Cc1ccc(OCc2ccccc2)cc1)NC(=O)[C@H](Cc1c[nH]cn1)NC(=O)OCc1ccccc1` [Example 9, N-[N-[N-[(Phenylmethoxy)carbonyl]-L-histidyl]-O-(phenylmethyl)-L-tyrosyl]-O-(phenylmethyl)-D-serine, methyl ester] (Cbz-His-Tyr(Bn)-[dS](Bn)-OMe), for which the IC50 turned out to be 0.27 µM.
As for `O=C(N[C@H](Cc1cnc[nH]1)C(=O)N[C@@H](Cc1ccc(OCc2ccccc2)cc1)C(=O)NCCc1ccccc1)N[C@@H]1C[C@H]1c1ccccc1` [5 (31), (t-2-Ph-c-propyl)-NHCO--D--His--Tyr(OBn)CONHCH2 CH2 Ph], the IC50 stood at 0.76 µM.
Consider `CCCCNC(=O)NC(Cc1cnc[nH]1)C(=O)NC(Cc1ccc(OCc2ccccc2)cc1)C(=O)NCCCCc1ccccc1` [5 (4), BuNHCO--D--His--Tyr(OBn)--CONH(CH2)4 Ph], for which the half-maximal inhibitory concentration (IC50) came out at 7.3 µM.
The figure for `CN(CCOCc1ccccc1)C(=O)[C@H](Cc1ccc(OCc2ccccc2)cc1)NC(=O)[C@H](Cc1c[nH]cn1)NC(=O)OCc1ccccc1` [Example 29, Nα -[N-[(Phenylmethoxy)carbonyl]-L-histidyl]-O-(phenylmethyl)-N-methyl-N-[2-(phenylmethoxy)ethyl]-L-tyrosinamide] is 3 µM; for `COC(=O)[C@H](COCc1ccccc1)NC(=O)C(C)(Cc1ccc(OCc2ccccc2)cc1)NC(=O)[C@H](Cc1c[nH]cn1)NC(=O)OCc1ccccc1` (mixture of isomers) [Example 10, N-[α-Methyl-N-[N-[(phenylmethoxy)carbonyl]-L-histidyl]-O-(phenylmethyl)-DL-tyrosyl]-O-(phenylmethyl)-L-serine. methyl ester] it is 0.1 µM.
